For orientation: inhibition means the percentage by which the read-out fell short of the control.

Results on 7 molecules are retold here after ChEMBL document CHEMBL4229457, “Mechanism underlying inhibitory effect of six dicaffeoylquinic acid isomers on melanogenesis and the computational molecular modeling studies” (Bioorg Med Chem, 2018).

The structures appear in SMILES notation. The source made the active and inactive calls. The calls are words filed in the database; no cut-off is given here.

The subject of data set [1] is B16-F1. Nature of the data set: Inhibition of adenylate cyclase in alpha-MSH-stimulated mouse B16-F1 cells assessed as reduction in cAMP-CREB signaling pathway-mediated MITF expression level at 25 uM after 48 to 72 hrs by Western blot analysis. Type of data set: cell-based. Background: In western blotting, separated proteins are transferred to a membrane and probed.

For data set [2], the system named is B16-F1. Kind of data set: Cytotoxicity against mouse B16-F1 cells assessed as reduction in cell viability at 25 uM after 72 hrs by MTT assay. Type of data set: cell-based. Particulars: b16-f1, 72 h. On the technique in general: Tetrazolium dyes change colour on reduction, which living cells bring about.
For data set [3], the system named is B16-F1. Kind of data set: Inhibition of adenylate cyclase in alpha-MSH-stimulated mouse B16-F1 cells assessed as reduction in cAMP-CREB signaling pathway-mediated TYR expression level at 25 uM after 48 to 72 hrs by Western blot analysis. It counts as cell-based.
Data set [4] deals with T1, Tyrosinase (Mus musculus) (UniProt P11344).
T1 sequence (whole entry): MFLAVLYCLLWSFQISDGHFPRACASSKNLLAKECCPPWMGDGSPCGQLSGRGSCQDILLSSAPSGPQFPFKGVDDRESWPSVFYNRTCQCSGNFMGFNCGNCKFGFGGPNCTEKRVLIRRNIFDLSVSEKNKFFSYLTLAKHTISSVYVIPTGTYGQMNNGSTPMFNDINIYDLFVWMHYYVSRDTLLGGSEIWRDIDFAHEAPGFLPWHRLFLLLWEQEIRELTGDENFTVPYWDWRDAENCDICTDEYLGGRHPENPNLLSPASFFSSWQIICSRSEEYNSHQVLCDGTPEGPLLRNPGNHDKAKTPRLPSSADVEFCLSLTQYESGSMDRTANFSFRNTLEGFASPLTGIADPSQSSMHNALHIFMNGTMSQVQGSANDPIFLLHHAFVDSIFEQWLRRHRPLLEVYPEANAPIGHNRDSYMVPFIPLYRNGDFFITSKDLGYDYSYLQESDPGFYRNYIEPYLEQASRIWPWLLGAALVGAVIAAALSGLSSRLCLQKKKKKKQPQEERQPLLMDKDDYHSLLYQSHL
Conditions: at 25 µM.
Description: Inhibition of tyrosinase in mouse B16-F1 cell lysates assessed as reduction in melanin production at 25 uM using L-DOPA as substrate incubated for 30 mins followed by substrate addition measured after 30 mins

Data set [5] concerns B16-F1. Nature of the data set: Inhibition of adenylate cyclase in alpha-MSH-stimulated mouse B16-F1 cells assessed as reduction in cAMP-CREB signaling pathway-mediated TRP1 expression level at 25 uM after 48 to 72 hrs by Western blot analysis. Type of data set: cell-based.
Data set [6] deals with B16-F1. Nature of the data set: Inhibition of alpha-MSH-stimulated melanogenesis in mouse B16-F1 cells assessed as reduction in intracellular melanin production at 25 uM after 72 hrs relative to control. Type of data set: functional. Particulars: B16-F1, 72 h.
Data set [7] concerns B16-F1. Kind of data set: Inhibition of adenylate cyclase in alpha-MSH-stimulated mouse B16-F1 cells assessed as reduction in cAMP-CREB signaling pathway-mediated DCT expression level at 25 uM after 48 to 72 hrs by Western blot analysis. It counts as cell-based.
The nature of data set [8]: Inhibition of melanogenesis in HEMn assessed as reduction in intracellular melanin production at 1 uM after 72 hrs relative to control. It counts as functional. Particulars: Homo sapiens.
A short description of data set [9]: Inhibition of melanogenesis in HEMn assessed as reduction in intracellular melanin production at 10 uM after 72 hrs relative to control. Type of data set: functional. Conditions: Homo sapiens.
The nature of data set [10]: Inhibition of melanogenesis in HEMn assessed as reduction in intracellular melanin production at 5 uM after 72 hrs relative to control. It counts as functional. Conditions: Homo sapiens.
Data set [11] addresses T2, Tyrosinase (Homo sapiens) (UniProt P14679).
T2 sequence (whole entry): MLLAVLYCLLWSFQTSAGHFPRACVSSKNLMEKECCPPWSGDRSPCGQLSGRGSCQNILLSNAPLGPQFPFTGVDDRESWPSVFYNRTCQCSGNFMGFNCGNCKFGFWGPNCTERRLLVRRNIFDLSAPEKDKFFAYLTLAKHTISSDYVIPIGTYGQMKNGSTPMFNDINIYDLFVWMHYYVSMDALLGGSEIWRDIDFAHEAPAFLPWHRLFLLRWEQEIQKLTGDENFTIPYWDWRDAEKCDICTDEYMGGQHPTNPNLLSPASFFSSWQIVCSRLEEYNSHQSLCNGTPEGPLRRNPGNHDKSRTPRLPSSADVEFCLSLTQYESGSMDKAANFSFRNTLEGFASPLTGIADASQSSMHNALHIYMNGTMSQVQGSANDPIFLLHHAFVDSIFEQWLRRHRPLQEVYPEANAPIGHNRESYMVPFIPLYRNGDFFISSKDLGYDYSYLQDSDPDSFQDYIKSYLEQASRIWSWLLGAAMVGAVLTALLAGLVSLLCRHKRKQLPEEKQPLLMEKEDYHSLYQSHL
Kind of data set: Inhibition of tyrosinase in HEMn lysates assessed as reduction in melanin production using L-DOPA as substrate incubated for 30 mins followed by substrate addition measured after 30 mins.

Data set [12] can be described thus: Inhibition of melanogenesis in HEMn assessed as reduction in intracellular melanin production at 25 uM after 72 hrs relative to control. It counts as functional. Conditions: Homo sapiens.
For data set [13], the species on record is Mus musculus. Kind of data set: Inhibition of adenylate cyclase in mouse B16-F1 cell lysates assessed as reduction in alpha-MSH-induced cAMP levels incubated for 6 hrs followed by forskolin stimulation measured after 30 mins by immuno assay. Background: cAMP levels reflect the balance of adenylyl cyclase and phosphodiesterase activity.
The species entered for data set [14] is Mus musculus. Nature of the data set: Inhibition of adenylate cyclase in mouse B16-F1 cell lysates assessed as reduction in forskolin-induced cAMP levels incubated for 6 hrs followed by forskolin stimulation measured after 30 mins by immuno assay.
The subject of data set [15] is B16-F1. Nature of the data set: Downregulation of adenylate cyclase protein expression level in alpha-MSH-stimulated mouse B16-F1 cells at 25 uM by Western blot analysis. It counts as functional, cell-based.
The subject of data set [16] is B16-F1. Kind of data set: Inhibition of adenylate cyclase in alpha-MSH-stimulated mouse B16-F1 cells assessed as reduction in CREB phosphorylation at 25 uM measured up to 360 mins by Western blot analysis. Type of data set: cell-based.

Turning to `O=C(/C=C/c1ccc(O)c(O)c1)O[C@@H]1C[C@](O)(C(=O)O)C[C@@H](OC(=O)/C=C/c2ccc(O)c(O)c2)[C@H]1O`, the inhibition entry in [1], in [3], in [5] and in data set [7] was “Active” throughout. The Activity result in data set [2] was “Non-Toxic”. The same molecule gave an inhibition in data set [4] of over 20%. In addition, in [6], the inhibition at 25 µM stood at 26%.
For `OC[C@H]1O[C@@H](Oc2ccc(O)cc2)[C@H](O)[C@@H](O)[C@@H]1O` [ARBUTIN], the inhibition result in [4] is “Active”. The inhibition at 25 µM in data set [6] came out at 34%.
Turning to `O=C(/C=C/c1ccc(O)c(O)c1)OC1[C@H](O)CC(OC(=O)/C=C/c2ccc(O)c(O)c2)(C(=O)O)C[C@@H]1O` (stereo not given in full), in data set [2], the Activity result is on record as “Non-Toxic”. The inhibition in data set [3] is 92%; in data set [4], over 20%. In data set [6], the inhibition at 25 µM was 18%. For the same molecule, the inhibition entry in data set [7] was “Active”.
Turning to `O=C(/C=C/c1ccc(O)c(O)c1)O[C@H]1C[C@@](OC(=O)/C=C/c2ccc(O)c(O)c2)(C(=O)O)C[C@H](O)[C@@H]1O`, the Activity result in [2] is “Non-Toxic”. Besides, the values for the inhibition in data set [3] and in data set [4] were 66% and over 20%, respectively. Besides, the inhibition at 25 µM in data set [6] worked out at 26%. Also, the inhibition result in data set [7] was “Active”.
For `O=C(/C=C/c1ccc(O)c(O)c1)O[C@@H]1[C@H](O)C[C@@](O)(C(=O)O)C[C@H]1OC(=O)/C=C/c1ccc(O)c(O)c1`, in that order: “Non-Toxic”, “Active”, over 20%, 26% and “Active”.
On to `O=C(/C=C/c1ccc(O)c(O)c1)O[C@@H]1C[C@@](OC(=O)/C=C/c2ccc(O)c(O)c2)(C(=O)O)C[C@@H](O)[C@@H]1O` [CYNARIN], for which the Activity result in [2] is listed as “Non-Toxic”. Moreover, the inhibition was 72% in [3] and over 20% in data set [4]. In addition, the inhibition at 25 µM in data set [6] is 61%. For the same molecule, the inhibition entry in data set [7] was “Active”.
With `O=C(/C=C/c1ccc(O)c(O)c1)O[C@H]1[C@H](O)C[C@@](O)(C(=O)O)C[C@H]1OC(=O)/C=C/c1ccc(O)c(O)c1`, in data set [8], the inhibition at 1 µM was 7.7%. Further, in data set [9], the inhibition at 10 µM worked out at 25.8%. Further, the inhibition at 5 µM in [10] was 11.2%. The inhibition was 91% in [1]; “Dose-dependent effect” in data set [11]; “Dose-dependent effect” in data set [13]; “Dose-dependent effect” in data set [14]; over 20% in [4]. Further, the inhibition at 25 µM in data set [12] was 51.2%; in data set [6] it was 84%. Further, the Activity entry in [2] is “Non-Toxic”. Moreover, the inhibition result in data set [3], in [5], in [16] and in data set [7] was “Active” in each case. The result in data set [15] was inactive.
